Experimental data published in the NIST ThermoML archive (doi:10.1021/je300143a).
± gives the expanded uncertainty stated by the source.

How the values were obtained:
[1] = Crystal; DTA
[2] = Molar enthalpy of transition or fusion; settings: Crystal; DSC

In the case of `CC(=O)c1ccc(NC2=NCCC3(CCCCC3)S2)cc1`, the Normal melting temperature [1] is reported as 163.5 ± 0.5 °C and the “Molar enthalpy of transition or fusion” value [2] is reported as 7.77 ± 0.287 kcal/mol.

In the case of `CC(C)c1ccc(NC2=NCCC3(CCCCC3)S2)cc1`, the Normal melting temperature [1] is reported as 139.6 ± 0.5 °C and the “Molar enthalpy of transition or fusion” value [2] is reported as 6.98 ± 0.287 kcal/mol.

With `Cc1ccc(NC2=NCCC3(CCCCC3)S2)cc1Cl` the Normal melting temperature [1] was 149.2 ± 0.5 °C and the “Molar enthalpy of transition or fusion” value [2] was 7.93 ± 0.287 kcal/mol.

In the case of `FC(F)(F)c1ccc(NC2=NCCC3(CCCCC3)S2)cc1`, the Normal melting temperature [1] is reported as 149.7 ± 0.5 °C and the “Molar enthalpy of transition or fusion” value [2] is reported as 7.86 ± 0.287 kcal/mol.

In the case of `O=C(NC1=NCCC2(CCCCC2)S1)c1ccccc1` [N-(1-thia-3-azaspiro[5.5]undec-2-en-2-yl)benzamide], the Normal melting temperature [1] is reported as 130.2 ± 0.5 °C and the “Molar enthalpy of transition or fusion” value [2] is reported as 6.67 ± 0.287 kcal/mol.

With `Brc1ccc(NC2=NCCC3(CCCCC3)S2)cc1` [N-(4-bromophenyl)-1-thia-3-azaspiro[5.5]undec-2-en-2-amine] the Normal melting temperature [1] was 175.2 ± 0.5 °C and the “Molar enthalpy of transition or fusion” value [2] was 10.6 ± 0.311 kcal/mol.

In the case of `Clc1ccc(NC2=NCCC3(CCCCC3)S2)cc1` [N-(4-chlorophenyl)-1-thia-3-azaspiro[5.5]undec-2-en-2-amine], the Normal melting temperature [1] is reported as 162.6 ± 0.5 °C and the “Molar enthalpy of transition or fusion” value [2] is reported as 6.67 ± 0.287 kcal/mol.

For `CCc1ccc(NC2=NCCC3(CCCCC3)S2)cc1` [N-(4-ethylphenyl)-1-thia-3-azaspiro[5.5]undec-2-en-2-amine], the Normal melting temperature [1] was 139.4 ± 0.5 °C and the “Molar enthalpy of transition or fusion” value [2] was 10.2 ± 0.311 kcal/mol.

With `COc1ccc(NC2=NCCC3(CCCCC3)S2)cc1` [N-(4-methoxyphenyl)-1-thia-3-azaspiro[5.5]undec-2-en-2-amine] the Normal melting temperature [1] was 115.4 ± 0.5 °C and the “Molar enthalpy of transition or fusion” value [2] was 7 ± 0.287 kcal/mol.

With `Cc1ccc(NC2=NCCC3(CCCCC3)S2)cc1` [N-(4-methylphenyl)-1-thia-3-azaspiro[5.5]undec-2-en-2-amine] the Normal melting temperature [1] was 108.2 ± 0.5 °C and the “Molar enthalpy of transition or fusion” value [2] was 10 ± 0.311 kcal/mol.

For `c1ccc(NC2=NCCC3(CCCCC3)S2)cc1` [N-phenyl-1-thia-3-azaspiro[5.5]undec-2-en-2-amine], the Normal melting temperature [1] was 113.4 ± 0.5 °C and the “Molar enthalpy of transition or fusion” value [2] was 5.16 ± 0.263 kcal/mol.
